Experimental data reported in patent US20210238139A1, “MODULATORS OF TRYPTOPHAN CATABOLISM” (E-Therapeutics PLC, priority 2018, published 2021).

System: SK-OV-3 cells
Assay: Effect of compounds on tryptophan catabolism in SK-OV-3 cell line (inhibition of kynurenine production, LC-MS/MS)
Format: cell-based
Settings: Homo sapiens, SK-OV-3, 24 h, SK-OV-3 cell line, 24 h incubation, kynurenine in supernatant by LC-MS/MS; read-out: IC50 Ranges (ic50 values for inhibition of Kynurenine production)
Protocol: SK-OV-3 cells are seeded in 96-well plates in McCoy's 5A medium supplemented with 10% FBS and incubated overnight at 37° C., 5% CO2, 95% humidity. The […] growth medium is replaced with DMEM F-12 medium supplemented with 6 mg/mL L-tryptophan. Compounds are added to the wells and incubated for 24 h at 37° C., 5% CO2, 95% humidity. Compounds are tested at 8 consecutive 3-fold dilutions starting from 30 μM in duplicate. At the end of incubation, concentration of kynurenine in cell supernatants is […] determined by LC-MS/MS. In parallel, cell viability is assessed by measurement of ATP using CellTiter Glo assay (Promega), according to manufacturer's protocol. Inhibition of Kyn production is calculated using the following formula: […] IC50 ranges for compounds of the invention are presented in Table 2, whereby the IC50 ranges are as follows: • A: […]

| IC50 | Compound |
| --- | --- |
| 0.5 to 1 µM | O=C(Nc1ccccc1)N(Cc1ccccc1Cl)C1CCCC1 [Compound 38, 1-[(2-chlorophenyl)methyl]-1-cyclopentyl-3-phenyl-urea] |
| > 5 µM | CCc1ccc(NC(=O)N(Cc2ccccc2Cl)C2CCCC2)cc1 [Compound 39, 1-[(2-chlorophenyl)methyl]-1-cyclopentyl-3-(4-ethylphenyl)urea] |
| 0.1 to 0.5 µM | O=C(Nc1ccc(F)c(F)c1)N(Cc1ccccc1Cl)C1CCCC1 [Compound 40, 1-[(2-chlorophenyl)methyl]-1-cyclopentyl-3-(3,4-difluorophenyl)urea] |
| 1 to 5 µM | Cn1ncc(CN(C(=O)Nc2ccccc2)C2CCCC2)c1Cl [Compound 41, 1-[(5-chloro-1-methyl-pyrazol-4-yl)methyl]-1-cyclopentyl-3-phenyl-urea] |
| 0.1 to 0.5 µM | CCc1ccc(NC(=O)N(Cc2cnn(C)c2Cl)C2CCCC2)cc1 [Compound 42, 1-[(5-chloro-1-methyl-pyrazol-4-yl)methyl]-1-cyclopentyl-3-(4-ethylphenyl)urea] |
| 1 to 5 µM | Cn1ncc(CN(C(=O)Nc2ccc(F)c(F)c2)C2CCCC2)c1Cl [Compound 43, 1-[(5-chloro-1-methyl-pyrazol-4-yl)methyl]-1-cyclopentyl-3-(3,4-difluorophenyl) urea] |
| 0.5 to 1 µM | Cn1ncc(CN(C(=O)Nc2ccc(F)cc2)C2CCCC2)c1Cl [Compound 44, 1-[(5-chloro-1-methyl-pyrazol-4-yl)methyl]-1-cyclopentyl-3-(4-fluorophenyl) urea] |
| 0.1 to 0.5 µM | COc1ccc(CN(C(=O)Nc2ccccc2)C2CCCC2)cc1C [Compound 45, 1-cyclopentyl-1-[(4-methoxy-3-methyl-phenyl)methyl]-3-phenyl-urea] |
| 1 to 5 µM | COc1ccc(CN(C(=O)NCCc2ccccc2)C2CCCC2)cc1C [Compound 46, 1-cyclopentyl-1-[(4-methoxy-3-methyl-phenyl)methyl]-3-(2-phenylethyl)urea] |
| 0.1 to 0.5 µM | COc1ccc(CN(C(=O)Nc2ccc(F)c(F)c2)C2CCCC2)cc1C [Compound 47, 1-cyclopentyl-3-(3,4-difluorophenyl)-1-[(4-methoxy-3-methyl-phenyl)methyl]urea] |
| 0.1 to 0.5 µM | COc1ccc(CN(C(=O)Nc2ccc(F)cc2)C2CCCC2)cc1C [Compound 48, 1-cyclopentyl-3-(4-fluorophenyl)-1-[(4-methoxy-3-methyl-phenyl)methyl]urea] |
| 1 to 5 µM | COc1ncc(CN(C(=O)Nc2ccccc2)C2CCCC2)s1 [Compound 49, 1-cyclopentyl-1-[(2-methoxythiazol-5-yl)methyl]-3-phenyl-urea] |
| 0.1 to 0.5 µM | N#Cc1cc(CN(C(=O)Nc2ccccc2)C2CCCC2)ccc1F [Compound 50, 1-[(3-cyano-4-fluoro-phenyl)methyl]-1-cyclopentyl-3-phenyl-urea] |
| > 5 µM | N#Cc1cc(CN(C(=O)NCCc2ccccc2)C2CCCC2)ccc1F [Compound 51, 1-[(3-cyano-4-fluoro-phenyl)methyl]-1-cyclopentyl-3-(2-phenylethyl)urea] |
| < 0.1 µM | N#Cc1cc(CN(C(=O)Nc2ccc(F)c(F)c2)C2CCCC2)ccc1F [Compound 52, 1-[(3-cyano-4-fluoro-phenyl)methyl]-1-cyclopentyl-3-(3,4-difluorophenyl)urea] |
| 0.1 to 0.5 µM | N#Cc1cc(CN(C(=O)Nc2ccc(F)cc2)C2CCCC2)ccc1F [Compound 53, 1-[(3-cyano-4-fluoro-phenyl)methyl]-1-cyclopentyl-3-(4-fluorophenyl)urea] |
| 1 to 5 µM | O=C(Nc1ccccc1F)N(Cc1cccs1)C1CCCC1 [Compound 54, 1-cyclopentyl-3-(2-fluorophenyl)-1-(2-thienylmethyl)urea] |
| 0.5 to 1 µM | O=C(Nc1cccc(F)c1)N(Cc1cccs1)C1CCCC1 [Compound 55, 1-cyclopentyl-3-(3-fluorophenyl)-1-(2-thienylmethyl)urea] |
| > 5 µM | O=C(Nc1cccnc1)N(Cc1cccs1)C1CCCC1 [Compound 57, 1-cyclopentyl-3-(3-pyridyl)-1-(2-thienylmethyl)urea] |
| 1 to 5 µM | O=C(Nc1cccs1)N(c1ccccc1)C1CCCC1 [Compound 58, 1-cyclopentyl-1-phenyl-3-(2-thienyl)urea] |
| 0.5 to 1 µM | O=C(Nc1ccc(Cl)cc1Cl)N(Cc1cccs1)C1CCCC1 [Compound 59, 1-cyclopentyl-3-(2,4-dichlorophenyl)-1-(2-thienylmethyl)urea] |
| 0.5 to 1 µM | N#Cc1ccc(CN(C(=O)Nc2ccccc2)C2CCCC2)o1 [Compound 60, 1-[(5-cyano-2-furyl)methyl]-1-cyclopentyl-3-phenyl-urea] |
| > 5 µM | N#Cc1ccc(CN(C(=O)Nc2ccc(F)cc2)C2CCCC2)o1 [Compound 61, 1-[(5-cyano-2-furyl)methyl]-1-cyclopentyl-3-(4-fluorophenyl)urea] |

| IC50 | Compound |
| --- | --- |
| > 5 µM | O=C(Nc1ccc(F)cc1)N(Cc1cnoc1)C1CCCC1 [Compound 62, 1-cyclopentyl-3-(4-fluorophenyl)-1-(isoxazol-4-ylmethyl)urea] |
| 1 to 5 µM | O=C(Nc1ccc(Cl)cc1)N(Cc1cnoc1)C1CCCC1 [Compound 63, 3-(4-chlorophenyl)-1-cyclopentyl-1-(isoxazol-4-ylmethyl)urea] |
| 1 to 5 µM | O=C(Nc1ccccc1)N(Cc1ccoc1)C1CCCC1 [Compound 64, 1-cyclopentyl-1-(3-furylmethyl)-3-phenyl-urea] |
| 1 to 5 µM | O=C(Nc1ccccc1)N(Cc1cccnc1)C1CCCC1 [Compound 65, 1-cyclopentyl-3-phenyl-1-(3-pyridylmethyl)urea] |
| 0.1 to 0.5 µM | O=C(Nc1ccc(Cl)cc1)N(Cc1cccnc1)C1CCCC1 [Compound 66, 3-(4-chlorophenyl)-1-cyclopentyl-1-(3-pyridylmethyl)urea] |
| 1 to 5 µM | O=C(Nc1ccccc1)N(Cc1ccccn1)C1CCCC1 [Compound 67, 1-cyclopentyl-3-phenyl-1-(2-pyridylmethyl)urea] |
| 1 to 5 µM | O=C(Nc1ccc(F)cc1)N(Cc1ccccn1)C1CCCC1 [Compound 68, 1-cyclopentyl-3-(4-fluorophenyl)-1-(2-pyridylmethyl)urea] |
| 0.1 to 0.5 µM | O=C(Nc1ccc(Cl)cc1)N(Cc1ccccn1)C1CCCC1 [Compound 69, 3-(4-chlorophenyl)-1-cyclopentyl-1-(2-pyridylmethyl)urea] |
| > 5 µM | O=C(Nc1ccc(F)cc1)N(Cc1cnccn1)C1CCCC1 [Compound 70, 1-cyclopentyl-3-(4-fluorophenyl)-1-(pyrazin-2-ylmethyl)urea] |
| 0.5 to 1 µM | O=C(Nc1ccc(Cl)cc1)N(Cc1cnccn1)C1CCCC1 [Compound 71, 3-(4-chlorophenyl)-1-cyclopentyl-1-(pyrazin-2-ylmethyl)urea] |
| > 5 µM | O=C(Nc1ccc(F)cc1)N(Cc1ncccn1)C1CCCC1 [Compound 72, 1-cyclopentyl-3-(4-fluorophenyl)-1-(pyrimidin-2-ylmethyl)urea] |
| 1 to 5 µM | O=C(Nc1ccc(Cl)cc1)N(Cc1ncccn1)C1CCCC1 [Compound 73, 3-(4-chlorophenyl)-1-cyclopentyl-1-(pyrimidin-2-ylmethyl)urea] |
| > 5 µM | O=C(Nc1ccc(F)cc1)N(Cc1ccncc1)C1CCCC1 [Compound 75, 1-cyclopentyl-3-(4-fluorophenyl)-1-(4-pyridylmethyl)urea] |
| 0.5 to 1 µM | O=C(Nc1ccc(Cl)cc1)N(Cc1ccncc1)C1CCCC1 [Compound 76, 3-(4-chlorophenyl)-1-cyclopentyl-1-(4-pyridylmethyl)urea] |
| 0.1 to 0.5 µM | CC1(CN(C(=O)Nc2ccccc2)C2CCCC2)CCN(C(=O)OC(C)(C)C)CC1 [Compound 77, tert-butyl 4-[[cyclopentyl(phenylcarbamoyl)amino]methyl]-4-methyl-piperidine-1-carboxylate] |
| 0.1 to 0.5 µM | CC1(CN(C(=O)Nc2ccc(F)cc2)C2CCCC2)CCN(C(=O)OC(C)(C)C)CC1 [Compound 78, tert-butyl 4-[[cyclopentyl-[(4-fluorophenyl)carbamoyl]amino]methyl]-4-methyl-piperidine-1-carboxylate] |
| 0.1 to 0.5 µM | CC1(CN(C(=O)Nc2ccc(Cl)cc2)C2CCCC2)CCN(C(=O)OC(C)(C)C)CC1 [Compound 79, tert-butyl 4-[[(4-chlorophenyl)carbamoyl-cyclopentyl-amino]methyl]-4-methyl-piperidine-1-carboxylate] |
| 0.5 to 1 µM | Cc1ccc(CN(C(=O)Nc2ccncc2)C2CCCC2)o1 [Compound 81, 1-cyclopentyl-1-[(5-methyl-2-furyl)methyl]-3-(4-pyridyl)urea] |
| 1 to 5 µM | CC1(CN(C(=O)Nc2ccccc2)C2CCCC2)CCNCC1 [Compound 85, 1-cyclopentyl-1-[(4-methyl-4-piperidyl)methyl]-3-phenyl-urea] |
| 1 to 5 µM | CC1(CN(C(=O)Nc2ccc(F)cc2)C2CCCC2)CCNCC1 [Compound 86, 1-cyclopentyl-3-(4-fluorophenyl)-1-[(4-methyl-4-piperidyl)methyl]urea] |
| > 5 µM | CC1(CN(C(=O)Nc2ccc(Cl)cc2)C2CCCC2)CCNCC1 [Compound 87, 3-(4-chlorophenyl)-1-cyclopentyl-1-[(4-methyl-4-piperidyl)methyl]urea] |
| 0.5 to 1 µM | O=C(Nc1ccncc1)N(Cc1cccc(C(F)(F)F)c1)C1CCCC1 [Compound 88, 1-cyclopentyl-3-(4-pyridyl)-1-[[3-(trifluoromethyl)phenyl]methyl]urea] |
| 1 to 5 µM | Cc1ccc(CN(C(=O)Nc2cccc(C#N)c2)C2CCCC2)o1 [Compound 93, 3-(3-cyanophenyl)-1-cyclopentyl-1-[(5-methyl-2-furyl)methyl]urea] |
